This note sets out measurements from patent US20260070945A1, “MACROCYCLIC IMMUNOMODULATORS” (Bristol-Myers Squibb Company, priority 2022, published 2026).

Where a SMILES comes first, the peptide text is derived from it. Bridges are numbered along the chain shown (N, C = ends). [ ]: non-standard residue; d: D form. The star is where a group is joined. ξ: configuration not given here. Phe(4-COOH) = N[C@@H](Cc1ccc(C(=O)O)cc1)C(=O)O; Bip = N[C@@H](Cc1ccc(-c2ccccc2)cc1)C(=O)O; Phe(3-Me) = Cc1cccc(C[C@H](N)C(=O)O)c1; Val(3-OH) = CC(C)(O)[C@H](N)C(=O)O; Cha = N[C@@H](CC1CCCCC1)C(=O)O; Thr(3ξ) = CC(O)[C@H](N)C(=O)O; Carboxymethyl = O=C(O)C*; NMeA = CN[C@@H](C)C(=O)O; Nle = CCCC[C@H](N)C(=O)O; Aun = NCCCCCCCCCCC(=O)O; Dab = NCC[C@H](N)C(=O)O; AEEA = NCCOCCOCC(=O)O

One may read the IC50 as the concentration needed to halve the response being measured.

In the assay the target is T1, PD-1/PD-L1 interaction (PE-labeled human PD-L1-Ig binding to Jurkat cell line over-expressing human PD-1) (Homo sapiens, UniProt Q15116).
T1 construct: expressed in transfected cells; host or cells: Jurkat
T1 sequence (Q15116 25-288): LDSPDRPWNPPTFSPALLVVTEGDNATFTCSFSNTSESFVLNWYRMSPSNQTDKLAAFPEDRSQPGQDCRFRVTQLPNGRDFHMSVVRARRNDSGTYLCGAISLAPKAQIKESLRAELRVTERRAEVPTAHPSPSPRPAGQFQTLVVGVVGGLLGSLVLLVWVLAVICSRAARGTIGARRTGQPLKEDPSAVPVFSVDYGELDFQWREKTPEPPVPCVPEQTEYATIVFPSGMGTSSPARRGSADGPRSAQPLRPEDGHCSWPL
The assay can be described thus: Jurkat-PD-1 Cell Binding High-Content Screening Assay (CBA). The settings on record: PE-labeled PD-L1-Ig 20 nM final, Jurkat-hPD-1 cells; read-out: Jurkat HPD1 PDL1 IC50. In outline: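 Jurkat-hPD-1 cells (8×10^3/well) in DMEM with 10% fetal calf serum were preincubated with compound for 2 h at 37 °C. PE-labeled PD-L1-Ig was then added at 20 nM final for 1 h. Cells were fixed in paraformaldehyde with Hoechst 33342, washed and imaged by high-content imaging.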
Consider `CCCC[C@@H]1NC(=O)CSC[C@@H](C(=O)N[C@@H](CCN)C(=O)NCCOCCOCC(=O)NCCCCCCCCCCC(=O)O)NC(=O)[C@H](CCC(=O)O)NC(=O)[C@H](C(C)C)NC(=O)[C@H](CC2CCCCC2)NC(=O)[C@H](CCN)NC(=O)[C@@H](CC(C)C)NC(=O)[C@H](C)N(C)C(=O)[C@H](Cc2ccc(C(=O)O)cc2)NC(=O)[C@H](Cc2ccc(-c3ccccc3)cc2)NC(=O)[C@H](Cc2ccc(C(=O)O)cc2)NC(=O)[C@H](Cc2cccc(C)c2)NC(=O)[C@H](CC(=O)O)NC(=O)[C@H](Cc2ccc(C(=O)O)cc2)NC1=O` [Example 2549] ({CH2CO}-[Nle][Phe(4-COOH)]D[Phe(3-Me)][Phe(4-COOH)][Bip][Phe(4-COOH)][NMeA][dL][Dab][Cha]VEC[Dab][AEEA][Aun]-OH; thioether N-14), for which the IC50 was determined as 5.4 nM. For the compound `Cc1cccc(C[C@@H]2NC(=O)[C@H](CC(=O)O)NC(=O)[C@H](Cc3ccc(C(=O)O)cc3)NC(=O)[C@H](CCN)NC(=O)CSC[C@@H](C(=O)N[C@@H](CCN)C(=O)NCCOCCOCC(=O)NCCCCCCCCCCC(=O)O)NC(=O)[C@H](Cc3cnc[nH]3)NC(=O)[C@H](C(C)O)NC(=O)[C@H](CC3CCCCC3)NC(=O)[C@H](CCN)NC(=O)[C@@H](CC(C)C)NC(=O)[C@H](C)N(C)C(=O)[C@H](Cc3ccc(C(=O)O)cc3)NC(=O)[C@H](Cc3ccc(-c4ccccc4)cc3)NC(=O)[C@H](Cc3ccc(C(=O)O)cc3)NC2=O)c1` (stereo partly drawn) [Example 2550] ({CH2CO}-[Dab][Phe(4-COOH)]D[Phe(3-Me)][Phe(4-COOH)][Bip][Phe(4-COOH)][NMeA][dL][Dab][Cha][Thr(3ξ)]HC[Dab][AEEA][Aun]-OH; thioether N-14), the IC50 was found to be 2.8 nM.

As for `Cc1cccc(C[C@@H]2NC(=O)[C@H](CC(=O)O)NC(=O)[C@H](Cc3ccc(OCC(=O)O)cc3)NC(=O)[C@H](CCN)NC(=O)CSC[C@@H](C(=O)N[C@@H](CCN)C(=O)NCCOCCOCC(=O)NCCCCCCCCCCC(=O)O)NC(=O)[C@H](Cc3cnc[nH]3)NC(=O)[C@H](C(C)(C)O)NC(=O)[C@H](CC3CCCCC3)NC(=O)[C@H](CCN)NC(=O)[C@@H](CC(C)C)NC(=O)[C@H](C)N(C)C(=O)[C@H](Cc3ccc(OCC(=O)O)cc3)NC(=O)[C@H](Cc3ccc(-c4ccccc4)cc3)NC(=O)[C@H](Cc3ccc(OCC(=O)O)cc3)NC2=O)c1` [Example 2551] ({CH2CO}-[Dab]Y(Carboxymethyl)D[Phe(3-Me)]Y(Carboxymethyl)[Bip]Y(Carboxymethyl)[NMeA][dL][Dab][Cha][Val(3-OH)]HC[Dab][AEEA][Aun]-OH; thioether N-14), the IC50 came out at 17.5 nM.

Regarding `Cc1cccc(C[C@@H]2NC(=O)[C@H](CC(=O)O)NC(=O)[C@H](Cc3ccc(C(=O)O)cc3)NC(=O)[C@H](CCN)NC(=O)CSC[C@@H](C(=O)N[C@@H](CCN)C(=O)NCCOCCOCC(=O)NCCCCCCCCCCC(=O)O)NC(=O)[C@H](CCC(=O)O)NC(=O)[C@H](C(C)O)NC(=O)[C@H](CC3CCCCC3)NC(=O)[C@H](CCN)NC(=O)[C@@H](CC(C)C)NC(=O)[C@H](C)N(C)C(=O)[C@H](Cc3ccc(C(=O)O)cc3)NC(=O)[C@H](Cc3ccc(-c4ccccc4)cc3)NC(=O)[C@H](Cc3ccc(C(=O)O)cc3)NC2=O)c1` (stereo partly drawn) [Example 2552] ({CH2CO}-[Dab][Phe(4-COOH)]D[Phe(3-Me)][Phe(4-COOH)][Bip][Phe(4-COOH)][NMeA][dL][Dab][Cha][Thr(3ξ)]EC[Dab][AEEA][Aun]-OH; thioether N-14), the IC50 was 18.7 nM. To `Cc1cccc(C[C@@H]2NC(=O)[C@H](CC(=O)O)NC(=O)[C@H](Cc3ccc(OCC(=O)O)cc3)NC(=O)[C@H](C(C)O)NC(=O)CSC[C@@H](C(=O)N[C@@H](CCN)C(=O)NCCOCCOCC(=O)NCCCCCCCCCCC(=O)O)NC(=O)[C@H](CCC(=O)O)NC(=O)[C@H](C(C)C)NC(=O)[C@H](CC3CCCCC3)NC(=O)[C@H](CCN)NC(=O)[C@@H](CC(C)C)NC(=O)[C@H](C)N(C)C(=O)[C@H](Cc3ccc(C(=O)O)cc3)NC(=O)[C@H](Cc3ccc(-c4ccccc4)cc3)NC(=O)[C@H](Cc3ccc(C(=O)O)cc3)NC2=O)c1` (stereo partly drawn) [Example 2553] ({CH2CO}-[Thr(3ξ)]Y(Carboxymethyl)D[Phe(3-Me)][Phe(4-COOH)][Bip][Phe(4-COOH)][NMeA][dL][Dab][Cha]VEC[Dab][AEEA][Aun]-OH; thioether N-14) belongs 4.8 nM.
